Experimental data: ChEMBL document CHEMBL4196206, “Aturanosides A and B, Glycosylated Anthraquinones with Antiangiogenic Activity from a Soil-Derived Streptomyces Species” (J Nat Prod, 2018)
Active and inactive are the calls of the source. The rule behind the calls is not given here.

How the values were obtained:
[1] = molecular target: Vascular endothelial growth factor receptor 2 (Homo sapiens) (UniProt P35968); assay: Inhibition of VEGFR2 phosphorylation in VEGF-stimulated HUVEC at 10 to 50 uM after 6 hrs by Western blot analysis; assay type: cell-based
HUVEC [2] = assay: Antiinvasive activity in HUVEC assessed as inhibition of VEGF-induced cell invasion at 25 uM by crystal violet staining based matrigel invasion chamber assay; assay type: functional; settings: Homo sapiens
HUVEC [3] = assay: Down regulation of VE-cadherin expression in VEGF-stimulated HUVEC at 10 to 50 uM after 6 hrs by Western blot analysis; assay type: functional, cell-based; settings: Homo sapiens
HUVEC [4] = assay: Antiangiogenic activity in HUVEC assessed as inhibition of VEGF-induced capillary tube formation by matrigel-based microscopic analysis; assay type: functional, cell-based; settings: Homo sapiens
HUVEC [5] = assay: Cytotoxicity against VEGF-stimulated HUVEC at 100 uM after 24 hrs by EZ-Cytox cell viability assay; assay type: cell-based; settings: human
HUVEC [6] = assay: Antiinvasive activity in HUVEC assessed as inhibition of VEGF-induced cell invasion by crystal violet staining based matrigel invasion chamber assay; assay type: functional; settings: Homo sapiens
HUVEC [7] = assay: Down regulation of VE-cadherin expression in VEGF-stimulated HUVEC after 6 hrs by Western blot analysis; assay type: functional, cell-based; settings: Homo sapiens
[8] = molecular target: Vascular endothelial growth factor receptor 2 (Homo sapiens) (UniProt P35968); assay: Inhibition of VEGFR2 phosphorylation in VEGF-stimulated HUVEC after 6 hrs by Western blot analysis; assay type: cell-based

Vascular endothelial growth factor receptor 2 (Homo sapiens), sequence (P35968 whole entry): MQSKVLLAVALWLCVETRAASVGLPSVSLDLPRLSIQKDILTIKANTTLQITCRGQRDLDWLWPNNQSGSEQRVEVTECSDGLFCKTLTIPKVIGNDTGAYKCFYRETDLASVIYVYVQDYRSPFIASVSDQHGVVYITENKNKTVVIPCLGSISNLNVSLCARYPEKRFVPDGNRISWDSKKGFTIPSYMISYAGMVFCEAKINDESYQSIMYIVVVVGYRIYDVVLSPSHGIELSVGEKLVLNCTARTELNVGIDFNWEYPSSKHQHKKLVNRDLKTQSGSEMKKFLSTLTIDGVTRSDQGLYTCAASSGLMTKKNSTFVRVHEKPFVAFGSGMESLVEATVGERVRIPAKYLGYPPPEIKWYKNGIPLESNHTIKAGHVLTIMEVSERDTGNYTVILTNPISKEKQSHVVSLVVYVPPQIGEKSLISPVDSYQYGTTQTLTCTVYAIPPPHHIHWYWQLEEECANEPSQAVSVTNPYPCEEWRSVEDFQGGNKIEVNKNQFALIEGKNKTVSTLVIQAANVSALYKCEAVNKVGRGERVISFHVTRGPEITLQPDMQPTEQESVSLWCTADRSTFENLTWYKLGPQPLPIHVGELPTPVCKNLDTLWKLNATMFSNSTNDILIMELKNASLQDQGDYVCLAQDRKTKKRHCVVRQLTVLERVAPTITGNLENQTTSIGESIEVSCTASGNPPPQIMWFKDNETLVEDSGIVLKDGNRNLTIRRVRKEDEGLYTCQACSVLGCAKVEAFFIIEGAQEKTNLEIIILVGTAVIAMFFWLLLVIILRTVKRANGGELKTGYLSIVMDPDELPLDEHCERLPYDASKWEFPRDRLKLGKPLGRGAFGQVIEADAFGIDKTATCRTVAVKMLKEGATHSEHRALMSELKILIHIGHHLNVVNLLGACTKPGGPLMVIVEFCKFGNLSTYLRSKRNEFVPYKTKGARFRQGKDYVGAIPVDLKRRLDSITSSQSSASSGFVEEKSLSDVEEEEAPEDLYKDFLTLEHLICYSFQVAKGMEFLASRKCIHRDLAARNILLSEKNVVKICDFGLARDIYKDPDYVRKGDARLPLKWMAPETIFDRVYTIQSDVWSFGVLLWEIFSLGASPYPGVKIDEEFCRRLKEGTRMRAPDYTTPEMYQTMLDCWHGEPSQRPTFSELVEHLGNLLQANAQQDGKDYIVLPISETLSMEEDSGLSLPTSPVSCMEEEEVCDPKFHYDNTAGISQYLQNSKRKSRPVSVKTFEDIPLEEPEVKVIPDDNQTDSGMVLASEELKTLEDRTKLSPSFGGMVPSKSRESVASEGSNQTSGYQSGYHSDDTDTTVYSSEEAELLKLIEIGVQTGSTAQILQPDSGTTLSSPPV

Row | SMILES | inhibition [1] | inhibition (HUVEC [2]) | Activity (HUVEC [3]) | inhibition (HUVEC [4]) | Activity (HUVEC [5]) | inhibition (HUVEC [6]) | Activity (HUVEC [7]) | inhibition [8]
1 | CCCc1cc(O[C@@H]2O[C@@H](C)[C@H](O)[C@@H](O)[C@H]2OC2O[C@H](CO)[C@@H](O)[C@H](O)[C@H]2NC(C)=O)cc2c1C(=O)c1c(O)cc(O)cc1C2=O (some centres undefined) | Active | Active | Active | Dose-dependent effect | Non-Toxic | – | – | –
2 | CCCc1c(C(=O)O)c(O)cc2c1C(=O)c1c(O)cc(O)cc1C2=O | – | – | – | inactive | – | inactive | inactive | inactive
3 | CCCc1cc(O[C@@H]2O[C@@H](C)[C@H](O)[C@@H](O)[C@H]2O)cc2c1C(=O)c1c(O)cc(O)cc1C2=O | Active | Active | Active | Dose-dependent effect | Non-Toxic | – | – | –
